This passage reports IC50 results from US11524962B2, “Substituted pyrrolo[2,3-d]pyrimidines as inhibitors of protein arginine methyl transferase 5 (PRMT5)” (PRELUDE THERAPEUTICS, INCORPORATED, priority 2017, dated 2022).

Each structure is given as a SMILES string.

One experiment deals with U-87 MG cells. Briefly: Cell proliferation assay in U-87 MG cells. The format is cell-based. To be noted: Homo sapiens, 240 h, day 10, read-out: Prolif_U87 IC50. The procedure: One day before experiment, Granta-519 cells were passaged to a density of 0.5×10^6 cells/ml. U-87 MG cells were trypsinized and 2,000 cells were seeded into 96-well plates and allow to grow overnight. On the day of experiment (day 0), Granta-519 Cells were spun down at 1,500 rpm for 4 min, resuspended in fresh medium to 0.5×10^6 cells/ml and 190 ul of cells were added to 96 well plates. For U-87 MG cells, old medium was removed and replaced with 190 uL fresh medium. Compound working stocks were first diluted at 1:50 with fresh medium in 96 well plate and 10 μL of diluted drugs were added to 96 well plates containing cells and incubated for 3 days. DMSO was used a vehicle control.
One day 3, 50 uL of Granta-519 cells were transferred to a new 96-well plate and 140 uL fresh medium was added. For U-87 MG cells, old medium was removed and replaced with 190 uL fresh medium. Compound working stocks were freshly diluted at 1:50 with medium and 10 μL of diluted drugs were added to cells and grow for 3 additional days. The same process was repeated on day 6. Cells were allowed to grow for additional 4 days.
On day 10, 100 uL Granta-519 cells were transferred to a new 96 well plate and 10 μL of Cell Counting Kit-8 (CCK-8, Jojindo, CK04-13) solution was added. For U-87 MG cells, old medium was removed and replaced with 100 uL fresh medium and 10 uL CCK-8 solution was added. Plates were incubated in CO2 incubator for 2 hours (Granta-519 cells) or 30 min (U-87 MG cells) and OD450 values were measured with a microplate reader (iMark microplate reader, Bio-Rad). Percentage of viable cells, relative to DMSO vehicle control, were calculated and plotted in Graphpad Prism ([Inhibitor]vs. normalized response−Variable slope) to determine proliferation IC50 values on day 10.
These cell proliferation procedures produced the data in Table 7.

The target in experiment [1] is T1, PRMT5/MEP50 complex (Homo sapiens (Human), UniProt O14744). The experiment in a line: Flash plate assay. The format is biochemical. To be noted: read-out: Flash Plate IC50. The procedure: Flash plate assay. Compounds were solubilized, and 3-fold diluted in 100% DMSO. […] Standard reactions were performed in a total volume of 30 μl in assay buffer, with 300 nM histone H4 based AcH4-23 (Anaspec: AS-65002) as substrate. To this was added the PRMT5/MEP50 complex diluted to provide a final assay concentration of 2.5 nM and the compounds were allowed to preincubate for 20 minutes at 37° C. The reaction was initiated by adding S-[3H-methyl]-adenosyl-L-methionine (PerkinElmer: NET155001MC) to final concentration of 1 μM. Following a 30 minutes incubation at 37° C., the reaction was stopped by adding 25 μL of 8M Guanidine HCl. Prepare streptavidin YSI SPA beads (Perkinelmer: RPNQ0012) at 0.3 mg/mL in assay buffer. To each reaction, add 150 μL of SPA beads suspension, and incubated while shaking at room temperature for 30 minutes. The plate was centrifuged at 100×g for 30 second before reading in a scintillation counter. IC50 values were determined by fitting the data to the standard 4 parameters with Hill Slope using GraphPad Prism software. This procedure produced the Flash Plate data in Table 7.

For experiment [2], the target named is T1, PRMT5/MEP50 complex. The experiment in a line: HotSpot Assay. The format is biochemical. The procedure: HotSpot Assay. Compounds were solubilized and 3-fold diluted in 100% DMSO. […] Standard reactions were performed in a total volume of 50 μl in assay buffer, with histone H2A (5 μM final) as substrate. To this was added the PRMT5/MEP50 complex diluted to provide a final assay concentration of 5 nM and the compounds were allowed to preincubate for 15 to 20 minutes at room temperature. The reaction was initiated by adding S-[3H-methyl]-adenosyl-L-methionine (PerkinElmer) to final concentration of 1 μM. Following a 60 minutes incubation at 30° C., the reaction was stopped by adding 100 μL of 20% TCA. Each reaction was spotted onto filter plate (MultiScreen FB Filter Plate, Millipore), and washed 5 times with PBS buffer, Scintillation fluid was added to the filter plate and read in a scintillation counter. IC50 values were determined by fitting the data to the standard 4 parameters with Hill Slope using GraphPad Prism software. This procedure generated the HotSpot data in Table 7.

The test system of experiment [3] is Symmetric Di-Methyl Arginine (sDMA) marks in U-87 MG cells. The experiment in a line: sDMA Western blot / In Cell Western in U-87 MG cells. It is filed as cell-based. To be noted: Homo sapiens, 72 h, 3 days, read-out: sDMA_U87 IC50. How it is done: (§1) Compound titration and cell culture: Compounds were dissolved in DMSO to make 10 mM stock and 3-fold series dilutions were further conducted to make working stocks top at 1 mM. Granta-519 cells were maintained in PRMI 1640 (Corning Cellgro, Catalog #: 10-040-CV) supplemented with 10% v/v FBS (GE Healthcare, Catalog #: SH30910.03) and U-87 MG cells were maintained in DMEM (Corning Cellgro, Catalog #: 10-013-CV) with 10% FBS and 2 mM Glutamin (Corning Cellgro, Catalog #25005CV).
(§2) To determine enzyme inhibition IC50 values in Granta-519 and U-87 MG cells using Western Blot analysis. One day before experiment, Granta-519 cells were passaged to a density of 0.5×10^6 cells/ml. U-87 MG cells were trypsinized and 4×10^5 cells were seeded into 6-well plates and allow to grow overnight. The next day, Granta-519 cells were spun down at 1,500 rpm for 4 min, resuspend in fresh medium at 0.5×10^6 cells/ml and 3 mL of culture (1.5×10^6 cells) were seeded into 6 well plate. Eight-point, 3-fold serial dilutions of compound working stocks were added to cells (3 ul, 1:1,000 dilution, DMSO concentration was 0.1%; final top concentration at 1 uM) and incubated for 3 days. Cells incubated with DMSO was used as a vehicle control.
(§3) Cells were harvested 3 days later, resuspended in 15 uL PBS, lysed in 4% SDS, and homogenized by passing through homogenizer column (Omega Biotek, Catalog #: HCR003). Total protein concentrations were determined by BCA assay (ThermoFisher Scientific, Catalog #: 23225). Lysates were mixed with 5× Laemmli buffer and boiled for 5 min. Forty ug of total protein was separated on SDS-PAGE gels (Bio-Rad, catalog #: 4568083, 4568043), transferred to PVDF membrane, blocked with 5% dry milk (Bio-Rad, Catalog #: 1706404) in TBS with 0.1% v/v Tween 20 (TBST) for 1 hour at room temperature (RT), and incubated with primary antibodies (sDMA: Cell signaling, Catalog #: 13222, 1:3,000; β-Actin: sigma, Catalog #: 1:5,000) in 5% dry milk in TBST at 4° C. overnight. The next day, membranes were washed with TBST, 5×5 min, and incubated with HRP conjugated seconded antibody (GE Healthcare; Catalog #: NA934-1ML, NA931-1ML; 1:5,000) for 2 hours at RT, followed by 5×5 min washes with TBST, and incubation with ECL substrates (Bio-Rad, Catalog #: 1705061, 1705062). Chemiluminescent signal was captured with Fluochem HD2 imager (Proteinsimple). SmD3me2s bands were quantified by ImageJ. Signals were normalized to β-Actin and DMSO control. IC50 values were calculated using Graphpad Prism ([Inhibitor]vs. normalized response−Variable slope).
U87-MG cells were trypsinized one day before the experiment, seeded into a 384-well plate at 2500 cells/well using a Multidrop Combi Dispenser (ThermoFisher) and allowed to grow overnight. The next day (day 0), a series of 9-point, 3-fold serial dilutions of compounds were prepared and dispensed into wells from a 1 mM stock solution using a TECAN digital dispenser (D300e) and the DMSO % concentration was normalized to 0.1%. Three days later, media was removed, and cells were processed as described above.
To determine IC50 values, the ratio for each well was calculated (sDMA 800 nm value/DRAQ5 700 nm value). Each plate included 28 negative control wells (DMSO only, minimum inhibition) and 18 positive control wells for maximum inhibition (treated with 3 uM of a reference compounds, background wells). The average ratios of minimum and maximum inhibition controls were calculated and used to determine the percentage of sDMA, relative to DMSO, for each well in the plate.
These procedures generated the sDMA data in Table 7.

Experiment [4] deals with Symmetric Di-Methyl Arginine (sDMA) marks in Granta-519 cells. Briefly: sDMA Western blot / In Cell Western in Granta-519 cells. It is filed as cell-based. To be noted: Homo sapiens, 72 h; Granta-519, 3 days; read-out: sDMA_Granta IC50. How it is done:
as §1, §2, §3
sDMA In Cell Western procedure (ICW): Granta-519 cells were passaged to a density of 0.5×10^6 cells/ml one day before experiments and allowed to grow overnight. The next day (day 0), cells were spun down at 1,500 rpm for 4 min, resuspended in fresh medium to 0.2×10^6 cells/ml and 100 uL of cells were added to 384-well plates using a Multidrop Combi Dispenser (ThermoFisher). A series of 9-point, 3-fold serial dilutions of compounds were prepared and dispensed into wells from a 1 mM stock solution using a TECAN digital dispenser (D300e) and the DMSO % concentration was normalized in each well to 0.1%. DMSO and 3 uM of reference compounds were used as negative (minimum inhibition) and positive (maximum inhibition) controls, respectively. After 3 days of incubation, cells were first resuspended and then 80 ul of cells were transferred to a Poly-D-lysine 384-well plate (Corning, Catalog #354663), followed by 30 minutes incubation at room temperature (RT) and 5 additional hours of incubation at 37° C. […]

T1 sequence (O14744 whole entry): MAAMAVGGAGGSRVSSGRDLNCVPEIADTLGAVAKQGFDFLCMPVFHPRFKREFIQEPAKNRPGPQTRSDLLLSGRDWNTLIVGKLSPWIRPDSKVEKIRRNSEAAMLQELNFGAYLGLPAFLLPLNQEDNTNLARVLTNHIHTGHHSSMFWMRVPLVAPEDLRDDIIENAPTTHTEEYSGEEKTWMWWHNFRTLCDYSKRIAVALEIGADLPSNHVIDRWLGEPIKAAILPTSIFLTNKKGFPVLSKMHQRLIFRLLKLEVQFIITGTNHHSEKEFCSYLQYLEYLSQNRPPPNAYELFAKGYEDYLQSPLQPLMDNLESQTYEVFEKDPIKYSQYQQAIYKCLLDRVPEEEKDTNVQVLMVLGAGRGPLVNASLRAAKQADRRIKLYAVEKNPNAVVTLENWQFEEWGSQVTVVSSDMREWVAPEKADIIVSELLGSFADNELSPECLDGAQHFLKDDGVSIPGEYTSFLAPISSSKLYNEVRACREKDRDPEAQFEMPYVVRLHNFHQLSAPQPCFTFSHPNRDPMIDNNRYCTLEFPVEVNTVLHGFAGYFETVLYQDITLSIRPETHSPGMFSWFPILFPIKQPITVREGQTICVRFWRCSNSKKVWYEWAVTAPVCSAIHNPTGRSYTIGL
T1 sequence (Q9BQA1 whole entry partner): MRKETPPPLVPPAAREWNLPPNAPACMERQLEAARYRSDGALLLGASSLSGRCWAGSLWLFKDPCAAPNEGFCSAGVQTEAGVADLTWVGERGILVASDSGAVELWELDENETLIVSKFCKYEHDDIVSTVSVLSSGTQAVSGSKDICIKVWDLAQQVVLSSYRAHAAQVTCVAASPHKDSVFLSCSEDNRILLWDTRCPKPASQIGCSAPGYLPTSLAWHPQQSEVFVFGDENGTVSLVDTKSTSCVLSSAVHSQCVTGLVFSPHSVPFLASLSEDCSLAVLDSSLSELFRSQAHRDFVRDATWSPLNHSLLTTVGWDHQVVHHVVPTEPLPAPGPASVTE

Regarding `Cc1ncnc2c1ccn2[C@@H]1O[C@H]([C@](C)(O)c2ccc3c(c2)CC3)[C@@H](O)[C@H]1O` [Example 9, (2S,3S,4R,5R)-2-((R)-1-(bicyclo[4.2.0]octa-1(6),2,4-trien-3-yl)-1-hydroxyethyl)-5-(4-methyl-7H-pyrrolo[2,3-d]pyrimidin-7-yl)tetrahydrofuran-3,4-diol], the IC50 in the experiment on U-87 MG cells came to 388 nM; on PRMT5/MEP50 complex [1] it was 24.3 nM; at PRMT5/MEP50 complex [2] it was 5 nM; in experiment [3], 110 nM.

On to `Cc1ncnc2c1ccn2[C@@H]1O[C@H]([C@H](O)c2ccc3c(c2)CCC3)[C@@H](O)[C@H]1O` [Example 44, (2R,3S,4R,5R)-2-((R)-(2,3-dihydro-1H-inden-5-yl)(hydroxy)methyl)-5-(4-methyl-7H-pyrrolo[2,3-d]pyrimidin-7-yl)tetrahydrofuran-3,4-diol], for which the values for the IC50 (with U-87 MG cells; on PRMT5/MEP50 complex [1]; in experiment [3]) were 1160 nM, 23.7 nM and 113 nM, respectively.

`Nc1ncnc2c1ccn2[C@@H]1O[C@H]([C@H](O)c2ccc3c(c2)CCC3)[C@@H](O)[C@H]1O` [Example 45, (2R,3R,4S,5R)-2-(4-amino-7H-pyrrolo[2,3-d]pyrimidin-7-yl)-5-((R)-(2,3-dihydro-1H-inden-5-yl)(hydroxy)methyl)tetrahydrofuran-3,4-diol]: the IC50 in the experiment with U-87 MG cells amounted to 547 nM; at PRMT5/MEP50 complex [1] it was 6.6 nM; in experiment [3] it was 54 nM.

In the case of `COCCc1ncnc2c1ccn2[C@@H]1O[C@H]([C@H](O)c2ccc3c(c2)CC3)[C@@H](O)[C@H]1O` [Example 48, (2R,3S,4R,5R)-2-((R)-bicyclo[4.2.0]octa-1(6),2,4-trien-3-yl(hydroxy)methyl)-5-(4-(2-methoxyethyl)-7H-pyrrolo[2,3-d]pyrimidin-7-yl)tetrahydrofuran-3,4-diol], the IC50 worked out at 10000 nM in the experiment on U-87 MG cells, 337 nM in experiment [4], 74 nM at PRMT5/MEP50 complex [1] and 758 nM in experiment [3].

Regarding `O[C@@H]1[C@H](O)[C@@H]([C@H](O)c2ccc3c(c2)CC3)O[C@H]1n1ccc2c(CF)ncnc21` [Example 49, (2R,3S,4R,5R)-2-((R)-bicyclo[4.2.0]octa-1(6),2,4-trien-3-yl(hydroxy)methyl)-5-(4-(fluoromethyl)-7H-pyrrolo[2,3-d]pyrimidin-7-yl)tetrahydrofuran-3,4-diol], the IC50 in the experiment on U-87 MG cells turned out to be 10000 nM; in experiment [4], 375 nM; on PRMT5/MEP50 complex [1] it was 78 nM; in experiment [3], 625 nM.
